Data taken from ChEMBL document CHEMBL1146478, “Saponins from the bark of Nephelium maingayi” (J Nat Prod, 2004).
Values after ≈ are worked out from the molar mass of the structure shown.

How the values were obtained:
Lu1 = assay: Cytotoxicity against human Lu1 cells; type: functional; conditions: read-out: ED50 (the source's name)
LNCaP = assay: Cytotoxicity against human LNCAP cells; type: functional; conditions: read-out: ED50 (the source's name)
MCF7 = assay: Cytotoxicity against human MCF7 cells; type: functional; conditions: read-out: ED50 (the source's name)
[1] = Cytotoxicity against human HUVEC; type: cell-based; conditions: HUVEC cells, read-out: ED50 (the source's name)

Row | SMILES | EC50 (Lu1) [µg/mL] | EC50 (LNCaP) [µg/mL] | EC50 (MCF7) [µg/mL] | CC50 [1] [µg/mL]
1 | CC(=O)OC[C@H]1O[C@@H](O[C@@H]2[C@@H](O)[C@H](O[C@H]3CC[C@]4(C)[C@H]5CC=C6[C@@H]7CC(C)(C)CC[C@]7(CO)CC[C@@]6(C)[C@]5(C)CC[C@H]4C3(C)C)OC[C@H]2O)[C@H](O)[C@@H](O)[C@@H]1O | > 20 | > 20 | > 20 | > 20
2 | CC1(C)CC[C@]2(CO)CC[C@]3(C)C(=CC[C@@H]4[C@@]5(C)CC[C@H](O[C@@H]6O[C@H](CO)[C@@H](O)[C@H](O[C@@H]7OC[C@H](O)[C@H](O)[C@H]7O)[C@H]6O[C@@H]6O[C@H](CO)[C@@H](O)[C@H](O)[C@H]6O)C(C)(C)[C@@H]5CC[C@]43C)[C@@H]2C1 [NEPHELIOSIDE II] | > 20 | > 20 | > 20 | > 20
3 | CO[C@@H]1C[C@H]2C(C)(C)[C@@H](O[C@@H]3O[C@H](CO)[C@@H](O)[C@H](O[C@@H]4OC[C@H](O)[C@H](O)[C@H]4O)[C@H]3O[C@@H]3O[C@H](CO)[C@@H](O)[C@H](O)[C@H]3O)CC[C@]2(C)[C@H]2CC=C3[C@@H]4CC(C)(C)CC[C@]4(CO)CC[C@@]3(C)[C@@]21C [NEPHELIOSIDE IV] | > 20 | > 20 | > 20 | > 20
4 | CC1(C)CC[C@]2(CO)CC[C@]3(C)C(=CC[C@@H]4[C@@]5(C)CC[C@H](O[C@@H]6OC[C@@H](O)[C@H](O[C@@H]7OC[C@H](O)[C@H](O)[C@H]7O)[C@H]6O[C@@H]6O[C@H](CO)[C@@H](O)[C@H](O)[C@H]6O)C(C)(C)[C@@H]5CC[C@]43C)[C@@H]2C1 [NEPHELIOSIDE I] | 19.5 (≈ 22.4 µM) | > 20 | > 20 | > 20
5 | CC1(C)CC[C@]2(C)[C@@H](O)C[C@]3(C)C(=CC[C@@H]4[C@@]5(C)CC[C@H](O[C@@H]6O[C@H](CO)[C@@H](O)[C@H](O[C@@H]7OC[C@H](O)[C@H](O)[C@H]7O)[C@H]6O[C@@H]6O[C@H](CO)[C@@H](O)[C@H](O)[C@H]6O)C(C)(C)[C@@H]5CC[C@]43C)[C@@H]2C1 [NEPHELIOSIDE VI] | > 20 | > 20 | > 20 | > 20
6 | CC1(C)CC[C@]2(C)[C@@H](O)C[C@]3(C)C(=CC[C@@H]4[C@@]5(C)CC[C@H](O[C@@H]6OC[C@@H](O)[C@H](O[C@@H]7OC[C@H](O)[C@H](O)[C@H]7O)[C@H]6O[C@@H]6O[C@H](CO)[C@@H](O)[C@H](O)[C@H]6O)C(C)(C)[C@@H]5CC[C@]43C)[C@@H]2C1 [NEPHELIOSIDE V] | 13.6 (≈ 15.6 µM) | 11.7 (≈ 13.5 µM) | 13.9 (≈ 16 µM) | 17.7 (≈ 20.4 µM)
